{
  "source": "PubChem BioAssay AID2060507",
  "about": "(Molecular Pharmacology Branch, DTP, NCI, 2025)",
  "system": "519858-162-T-J1-PDC complex spheroid viability",
  "assay": "Anticancer human tumor 519858-162-T-J1-PDC patient-derived colon adenocarcinoma cell line growth inhibition [GQUAD]",
  "settings": "for pIC50: curve of first compound; for viability, T/C: stronger effect = lower value",
  "source_text": "DNA G-quadruplex Stabilizer Agents in Combinations in Complex Spheroids\nA high-throughput screen of multi-cell type tumor spheroids was designed to identify active combinations of DNA G-quadruplex stabilizer agents and targeted small molecules. Complex spheroids include a stromal component modeled by human endothelial cells (HUVEC) and fibroblasts modeled by human mesenchymal stem cells (MSCs). The concentration ranges selected for each drug and investigational agent were based upon clinically achievable concentrations if the clinical Cmax of the agent was known.\nCompounds. The drugs and investigational agents: pidnarulex (CX-5461; NSC782164), APTO-253 (NSC789042), BRACO-19 (NSC847499), peposertib (NSC802822), ceralasertib (NSC780249), elimusertib (NSC800525), camonsertib (NSC841442), AZD-1390 (NSC803789), olaparib (NSC753686), talazoparib (NSC767125), ART-558 (NSC835418), sotorasib (NSC818433), MRTX-1133 (NSC836407), SN-38 (NSC673596), topotecan (NSC609699), etoposide (NSC141540), doxorubicin (NSC123127), gemcitabine (NSC613327), 5-fluorouracil (NSC19893), paclitaxel (NSC125973), vemurafenib (NSC761431), panobinostat (NSC761190), R-306465 (JNJ-16241199; NSC773264), adavosertib (NSC754352), TP-3654 (NSC805149), carboplatin (NSC241240), KSQ-4279 (NSC840948), and staurosporine (NSC755774) were obtained from the National Cancer Institute (NCI) Developmental Therapeutics Program Chemical Repository (34). The FDA-approved anticancer drug set is available from the NCI Developmental Therapeutics Program. […] The stock solutions were prepared in dimethyl sulfoxide (DMSO, Sigma-Aldrich, St. Louis, MO, cat. D2650) at 800-fold the tested concentration and stored at -70 degrees C prior to their use. All drugs and investigational agents were tested over a range starting from a high concentration at or near the clinical Cmax and decreasing in half-log increments. If the clinical Cmax for an agent had not been determined, the highest concentration tested was 10 microM.\n2.3 Cell Culture. All cells were maintained in an incubator at 37 degrees C and 5% CO2 with 95% humidity. The PDC lines were cultured according to standard operating procedures established by the NCI PDMR. All PDCs were thawed and cultured in Matrigel-coated flasks prepared with a working solution of 1X Ham's F-12 nutrient mix, without supplementation (Invitrogen, cat. 11765054), 100 U/mL penicillin-streptomycin (Invitrogen, cat. 15140122), and 2.5% Matrigel (Corning Inc., cat. 354248) for the first three passages. The 857933-349-R-J2-PDC line was cultured in 6C/Colon 1B media, which includes advanced DMEM/F-12 (Thermo Fisher Scientific, cat. 12634028), 10 mM HEPES (Thermo Fisher Scientific, cat. 15630080), 1X GlutaMAX supplement (Thermo Fisher Scientific, cat. 35050061), 0.1 mg/mL primocin (InvivoGen, cat. ant-pm-2), 10% defined fetal bovine serum, heat inactivated (HyClone Laboratories Inc., cat. SH30070.03HI), 50% L-WRN conditioned media (ATCC, cat. CRL-3276), 1.25 mM N-Acetyl-L-cysteine (Sigma-Aldrich, cat. A9165), 10 mM nicotinamide (Sigma-Aldrich, cat. N0636), 1X B-27 supplement (Thermo Fisher Scientific, cat. 17504044), 1X N-2 supplement (Thermo Fisher Scientific, cat. 17502048), 10 microM Y-27632 dihydrochloride (Tocris Bioscience, cat. 1254), and 50 ng/mL human EGF recombinant protein (Thermo Fisher Scientific, cat. PHG0311). The 485176-168-R4-J1-PDC line was cultured in Panc media, which includes all 6C/Colon 1B media components plus 100 ng/mL human FGF-10 (Thermo Fisher Scientific, cat. 100-26), 500 nM SB-431542 (Selleckchem, cat. S1067), and gastrin (Tocris, cat. 3006).\n[…]",
  "note": "pIC50: −log10 of the molar value.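 Also: spheroids exposed to compounds for 7 days.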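 For viability, T/C in this document: 100% = DMSO vehicle control viability.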",
  "data": [
    {"smiles": "C#Cc1c(F)ccc2cc(O)cc(-c3ncc4c(N5CC6CCC(C5)N6)nc(OCC56CCCN5CC(F)C6)nc4c3F)c12", "note": "(configuration not stated) + Cc1[nH]c2ccc(F)cc2c1-c1nc2c3cccnc3c3ncccc3c2[nH]1", "values": [
      {"measurement": "pIC50", "setting": "second compound 0.0316 µM", "value": "< 5.00"},
      {"measurement": "pIC50", "setting": "second compound 0.1 µM", "value": "< 5.00"},
      {"measurement": "pIC50", "setting": "second compound 0.316 µM", "value": "< 5.00"},
      {"measurement": "pIC50", "setting": "second compound 1 µM", "value": "< 5.00"},
      {"measurement": "pIC50", "setting": "second compound 3.16 µM", "value": "< 5.00"},
      {"measurement": "pIC50", "setting": "second compound 10 µM", "value": "< 5.00"},
      {"measurement": "viability, T/C", "setting": "second compound 0.0316 µM, first compound 0.0316 µM", "value": 103, "unit": "%"},
      {"measurement": "viability, T/C", "setting": "second compound 0.0316 µM, first compound 0.1 µM", "value": 82.9, "unit": "%"},
      {"measurement": "viability, T/C", "setting": "second compound 0.0316 µM, first compound 0.316 µM", "value": 92, "unit": "%"},
      {"measurement": "viability, T/C", "setting": "second compound 0.0316 µM, first compound 1 µM", "value": 113, "unit": "%"},
      {"measurement": "viability, T/C", "setting": "second compound 0.0316 µM, first compound 3.16 µM", "value": 72.3, "unit": "%"},
      {"measurement": "viability, T/C", "setting": "second compound 0.0316 µM, first compound 10 µM", "value": 73.2, "unit": "%"},
      {"measurement": "viability, T/C", "setting": "second compound 0.1 µM, first compound 0.0316 µM", "value": 111, "unit": "%"},
      {"measurement": "viability, T/C", "setting": "second compound 0.1 µM, first compound 0.1 µM", "value": 85.9, "unit": "%"},
      {"measurement": "viability, T/C", "setting": "second compound 0.1 µM, first compound 0.316 µM", "value": 126, "unit": "%"},
      {"measurement": "viability, T/C", "setting": "second compound 0.1 µM, first compound 1 µM", "value": 83.9, "unit": "%"},
      {"measurement": "viability, T/C", "setting": "second compound 0.1 µM, first compound 3.16 µM", "value": 68.3, "unit": "%"},
      {"measurement": "viability, T/C", "setting": "second compound 0.1 µM, first compound 10 µM", "value": 73, "unit": "%"},
      {"measurement": "viability, T/C", "setting": "second compound 0.316 µM, first compound 0.0316 µM", "value": 104, "unit": "%"},
      {"measurement": "viability, T/C", "setting": "second compound 0.316 µM, first compound 0.1 µM", "value": 112, "unit": "%"},
      {"measurement": "viability, T/C", "setting": "second compound 0.316 µM, first compound 0.316 µM", "value": 87.5, "unit": "%"},
      {"measurement": "viability, T/C", "setting": "second compound 0.316 µM, first compound 1 µM", "value": 75.7, "unit": "%"},
      {"measurement": "viability, T/C", "setting": "second compound 0.316 µM, first compound 3.16 µM", "value": 106, "unit": "%"},
      {"measurement": "viability, T/C", "setting": "second compound 0.316 µM, first compound 10 µM", "value": 66.1, "unit": "%"},
      {"measurement": "viability, T/C", "setting": "second compound 1 µM, first compound 0.0316 µM", "value": 79.4, "unit": "%"},
      {"measurement": "viability, T/C", "setting": "second compound 1 µM, first compound 0.1 µM", "value": 73.9, "unit": "%"},
      {"measurement": "viability, T/C", "setting": "second compound 1 µM, first compound 0.316 µM", "value": 104, "unit": "%"},
      {"measurement": "viability, T/C", "setting": "second compound 1 µM, first compound 1 µM", "value": 60.4, "unit": "%"},
      {"measurement": "viability, T/C", "setting": "second compound 1 µM, first compound 3.16 µM", "value": 106, "unit": "%"},
      {"measurement": "viability, T/C", "setting": "second compound 1 µM, first compound 10 µM", "value": 58.5, "unit": "%"},
      {"measurement": "viability, T/C", "setting": "second compound 3.16 µM, first compound 0.0316 µM", "value": 86.5, "unit": "%"},
      {"measurement": "viability, T/C", "setting": "second compound 3.16 µM, first compound 0.1 µM", "value": 80, "unit": "%"},
      {"measurement": "viability, T/C", "setting": "second compound 3.16 µM, first compound 0.316 µM", "value": 79.7, "unit": "%"},
      {"measurement": "viability, T/C", "setting": "second compound 3.16 µM, first compound 1 µM", "value": 52.6, "unit": "%"},
      {"measurement": "viability, T/C", "setting": "second compound 3.16 µM, first compound 3.16 µM", "value": 76.7, "unit": "%"},
      {"measurement": "viability, T/C", "setting": "second compound 3.16 µM, first compound 10 µM", "value": 80.3, "unit": "%"},
      {"measurement": "viability, T/C", "setting": "second compound 10 µM, first compound 0.0316 µM", "value": 78.3, "unit": "%"},
      {"measurement": "viability, T/C", "setting": "second compound 10 µM, first compound 0.1 µM", "value": 83.2, "unit": "%"},
      {"measurement": "viability, T/C", "setting": "second compound 10 µM, first compound 0.316 µM", "value": 76.3, "unit": "%"},
      {"measurement": "viability, T/C", "setting": "second compound 10 µM, first compound 1 µM", "value": 63.5, "unit": "%"},
      {"measurement": "viability, T/C", "setting": "second compound 10 µM, first compound 3.16 µM", "value": 52.3, "unit": "%"},
      {"measurement": "viability, T/C", "setting": "second compound 10 µM, first compound 10 µM", "value": 65.6, "unit": "%"}
    ]}
  ]
}
